Measured values taken from BigSolDB 2.1.

N[C@H](Cc1c[nH]c2ccccc12)C(=O)O
solubility (mole fraction)
Conditions | in DMF | in ethanol | in isopropanol | in methanol | in water
283.15 K | 0.00714 | 9.34e-05 | 1.29e-05 | 0.000179 | 0.00146
288.15 K | 0.00749 | 0.000112 | 1.57e-05 | 0.000217 | 0.00159
293.15 K | 0.00793 | 0.000135 | 1.9e-05 | 0.000261 | 0.00175
298.15 K | 0.00834 | 0.000165 | 2.26e-05 | 0.000303 | 0.00192
303.15 K | 0.00872 | 0.000202 | 2.64e-05 | 0.000358 | 0.00209
308.15 K | 0.00912 | 0.000243 | 3.09e-05 | 0.000421 | 0.00227
313.15 K | 0.00954 | 0.00029 | 3.62e-05 | 0.000489 | 0.00245
318.15 K | 0.01 | 0.000348 | 4.16e-05 | 0.000575 | 0.00267
323.15 K | 0.0104 | 0.00041 | 4.78e-05 | 0.000671 | 0.00288
328.15 K | 0.0108 | 0.000484 | 5.44e-05 | 0.000779 | 0.00309
333.15 K | 0.0113 | 0.000567 | 6.22e-05 | 0.000894 | 0.00332
